The test system of assay [1] is dorsal root ganglion explants. Briefly: Axonal Wallerian degeneration assay in mouse DRG explant culture. As to conditions: 10 µM test compound, 2 hours pretreatment, axons transected, images at 0 hour and 24 hours. The format is cell-based, C57BL/6 male mice. The source says: The experimental method was based on Gerdts J et al. (Gerdts J, Sasaki Y, Vohra B, Marasa J, Milbrandt J. Image-based screening identifies novel roles for IkappaB kinase and glycogen synthase kinase 3 in axonal degeneration. J Biol Chem. 2011 Aug 12;286(32):28011-8).
Dorsal root ganglia were dissected from 2-month-old C57BL/6 male mice and placed in 35 mm culture dishes containing pre-cooled HBSS buffer. Excess tissue from each dorsal root ganglion was removed and cut into 2-3 explants using a scalpel, and the explants were planted in wells of a 96-well plate coated with 100 ng/mL Matrigel (Corning). 100 µL of DRG culture medium (Neurobasal medium (Gibco) containing 2% B-27 (Gibco), 1% GlutaMax (Gibco), and 10 ng/mL NGF (MCE)) was added, then cultured in a 37°C incubator for one week, with medium change on day 4, and experiments were performed on day 8.
0.1 µL of 10 mM test compound was dissolved in 100 µL DRG culture medium to prepare new culture medium containing 10 µM test compound. The culture medium in the 96-well plate was aspirated and new culture medium containing the test compound was added. Then the dorsal root ganglion explants were incubated with the medium in a 37°C incubator for 2 hours for pre-protection. After 2-hour pretreatment, a glass electrode was used to transect axons in the area near the tissue block, and bright-field images of axons in the same area were captured at 0 hour and 24 hours post axonal degeneration using a 20x objective lens of a microscope (Olympus). Axonal integrity was evaluated using an in-house developed script.

The target of a further assay is T1, SARM1 (Homo sapiens, UniProt Q6SZW1).
T1 construct: inventors produced full-length SARM1 for NAD enzyme activity experiments, and used it for screening; His (C); made in house; host or cells: HEK293 cells, transient transfection; supernatant of digitonin lysate, no further purification described
T1 sequence (Q6SZW1 28-724): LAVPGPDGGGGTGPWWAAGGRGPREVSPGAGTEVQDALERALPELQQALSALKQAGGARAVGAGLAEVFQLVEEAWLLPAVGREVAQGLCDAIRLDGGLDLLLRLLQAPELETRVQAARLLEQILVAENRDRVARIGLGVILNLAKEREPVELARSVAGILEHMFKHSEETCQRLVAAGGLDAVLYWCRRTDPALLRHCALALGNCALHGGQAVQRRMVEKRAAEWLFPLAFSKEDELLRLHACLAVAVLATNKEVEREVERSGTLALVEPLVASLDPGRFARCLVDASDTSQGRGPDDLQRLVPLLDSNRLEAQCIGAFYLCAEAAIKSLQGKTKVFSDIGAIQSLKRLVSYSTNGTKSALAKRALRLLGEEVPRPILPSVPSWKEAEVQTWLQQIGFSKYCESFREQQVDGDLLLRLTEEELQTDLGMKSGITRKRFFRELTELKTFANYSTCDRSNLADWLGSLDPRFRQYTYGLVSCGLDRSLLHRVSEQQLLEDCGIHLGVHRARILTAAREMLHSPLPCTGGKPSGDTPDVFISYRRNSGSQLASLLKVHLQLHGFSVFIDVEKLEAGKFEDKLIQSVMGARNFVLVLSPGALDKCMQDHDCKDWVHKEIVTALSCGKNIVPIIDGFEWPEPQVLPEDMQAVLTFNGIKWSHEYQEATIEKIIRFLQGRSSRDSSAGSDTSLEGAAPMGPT
Kind of assay: In vitro biochemical assay for inhibiting SARM1 enzyme activity (PC6 fluorescence, NADase). Conditions: full-length SARM1 from transfected HEK293 cells; 50 µM NAD, 50 µM PC6, 50 µM NMN activator; room temperature, 30 minutes; read-out: IC50. The protocol: The gene sequence of SARM1 protein was amplified using PCR, and the PCR amplification product was constructed into pcDNA3.1-HIS-C plasmid. The above construction was completed by YouBio(Hunan, China). HEK293 cells were cultured in 10 cm dishes using DMEM, and the cells were transfected with 15 μg pcDNA3.1-SARM[…]-C expression plasmid on the following day. Cells were collected 48 hours after transfection, and SARM1 protein expressed in the cells was obtained by digitonin lysis for in vitro activity assay experiments. The specific procedure was as follows: Cells were digested with trypsin-EDTA, then centrifuged at 1000 rpm for 5 minutes, washed once with PBS, and then resuspended in PBS containing 100 μM digitonin, with 0.6 mL PBS for the cells in per 10 cm dish, and lysed for 5 minutes. […] Then the supernatant containing SARM1 protein was collected by centrifugation at 5000 rpm for 10 minutes. […] A group without inhibitor was used as control group. All mixtures were incubated at room temperature for 10 minutes. Then, 50 μM NAD and 50 μM PC6 as substrates and 50 μM NMN as an activator were added to the SARM1 protein incubated with the inhibitor, and the reaction was carried out at room temperature for 30 minutes. The concentrations of each component were the final concentrations in the reaction system. […] Finally, the reaction rate was used to represent the protein activity and calculate the half-maximal inhibitory concentration.

As usually defined, the IC50 is the concentration at which inhibition is half-maximal. Turning to `O=C(CCc1ccc(Cl)cc1)Nc1ccc2c(c1)COc1cnccc1-2` [Compound 42, 3-(4-chlorophenyl)-N-(6H-isochromeno[3,4-c]pyridin-8-yl)propanamide], the “Degree of Protection Against Axonal Wallerian Degeneration” value (“Degree” below) in assay [1] is reported as “A (substantial protection (A) >50%)”. The IC50 at SARM1 is below 100 nM.
The corresponding values for `[2H]C1([2H])Oc2cnccc2-c2ccc(N3CCC(Cc4ccc(F)cc4)C3=O)cc21` (stereo not drawn) [Compound 146, 3-(4-fluorobenzyl)-1-(6H-isochromeno[3,4-c]pyridin-8-yl-6,6-d2)pyrrolidin-2-one] are “A (substantial protection (A) >50%)” and below 100 nM.
Turning to `O=C(CCc1ccc(Cl)c(Cl)c1)Nc1ccc2c(c1)COc1cnccc1-2` [Compound 21], the “Degree” value in assay [1] is on record as “A (substantial protection (A) >50%)”. Moreover, at SARM1, the IC50 is below 100 nM.
For `Cc1ccc(CCC(=O)Nc2ccc3c(c2)COc2cnccc2-3)cc1` [Compound 41] the same measures were “A (substantial protection (A) >50%)” and 100 to 1000 nM.
For `[2H]C1(Cc2ccc(F)cc2)CCN(c2ccc3c(c2)C([2H])([2H])Oc2cnccc2-3)C1=O` (stereo not drawn) [Compound 143, 3-(4-fluorobenzyl)-1-(6H-isochromeno[3,4-c]pyridin-8-yl-6,6-d2)pyrrolidin-2-one-3d], the “Degree” value in assay [1] was “A (substantial protection (A) >50%)”. Besides, the IC50 at SARM1 was below 100 nM.
The corresponding values for `O=C(CCc1ccc(F)cc1)Nc1cnc2c(c1)COc1cnccc1-2` [Compound 91, 3-(4-fluorophenyl)-N-(5H-pyrano[4,5-b:2,3-c']dipyridin-3-yl)propanamide] are “A (substantial protection (A) >50%)” and below 100 nM.
On to `O=C1C(Cc2ccc(F)cc2)CCN1c1ccc2c(c1)COc1cnccc1-2` (stereo not drawn) [Compound 10, 3-(4-fluorobenzyl)-1-(6H-isochromeno[3,4-c]pyridin-8-yl)pyrrolidin-2-one], for which the “Degree” value in assay [1] is “A (substantial protection (A) >50%)”. Moreover, the IC50 on SARM1 was below 100 nM.
Regarding `O=C1C(Cc2cc(F)cc(F)c2)CCN1c1ccc2c(c1)COc1cnccc1-2` (stereo not drawn) [Compound 4], the “Degree” value in assay [1] is “A (substantial protection (A) >50%)”. For the same compound, on SARM1, the IC50 lay within 100 to 1000 nM.
For `O=C(CCc1ccc(Cl)c(F)c1)Nc1ccc2c(c1)COc1cnccc1-2` [Compound 28] the same measures were “A (substantial protection (A) >50%)” and 100 to 1000 nM.
As to `O=C1C(Cc2ccc3occc3c2)CCN1c1ccc2c(c1)COc1cnccc1-2` (stereo not drawn) [Compound 57], the “Degree” value in assay [1] is listed as “B (partial protection (B): 20% to 50%)”. Moreover, at SARM1, the IC50 was 100 to 1000 nM.
Take `O=C(CCc1ccc(F)cc1F)Nc1ccc2c(c1)COc1cnccc1-2` [Compound 37]: in assay [1], the “Degree” value is reported as “A (substantial protection (A) >50%)”. Besides, on SARM1, the IC50 was in the range of 100 to 1000 nM.
For `O=C(COc1ccc(F)cc1)Nc1ccc2c(c1)COc1cnccc1-2` [Compound 74] the same measures were “B (partial protection (B): 20% to 50%)” and below 100 nM.
For `O=C1C(Cc2ccc(F)cc2)CCCN1c1ccc2c(c1)COc1cnccc1-2` (stereo not drawn) [Compound 137] the same measures were “A (substantial protection (A) >50%)” and 100 to 1000 nM.
For `O=C(CCc1cc(F)cc(F)c1)Nc1ccc2c(c1)COc1cnccc1-2` [Compound 39] the same measures were “A (substantial protection (A) >50%)” and below 100 nM.
As for `O=C1C(Cc2ccc(Cl)cc2)CCN1c1ccc2c(c1)COc1cnccc1-2` (stereo not drawn) [Compound 1, 3-(4-chlorobenzyl)-1-(6H-isochromeno[3,4-c]pyridin-8-yl)pyrrolidin-2-one], the “Degree” value in assay [1] is “A (substantial protection (A) >50%)”. At SARM1, the IC50 is below 100 nM.
As to `O=C1C(Cc2ccccc2)CCN1c1ccc2c(c1)COc1cnccc1-2` (stereo not drawn) [Compound 2, 3-benzyl-1-(6H-isochromeno[3,4-c]pyridin-8-yl)pyrrolidin-2-one], in assay [1], the “Degree” value is “A (substantial protection (A) >50%)”. On SARM1, the IC50 lay within 100 to 1000 nM.
On to `O=C(NCc1ccc(Cl)cc1)Nc1ccc2c(c1)COc1cnccc1-2` [Compound 63], for which, in assay [1], the “Degree” value is given as “A (substantial protection (A) >50%)”. For the same compound, the half-inhibitory concentration (IC50) on SARM1 lay in the range of 100 to 1000 nM.
In the case of `O=C1C(Cc2cc(F)c(F)c(F)c2)CCN1c1ccc2c(c1)COc1cnccc1-2` (stereo not drawn) [Compound 5], the “Degree” value in assay [1] is reported as “A (substantial protection (A) >50%)”. Moreover, the IC50 at SARM1 fell in the range of 1000 to 10000 nM.
Regarding `O=C1C(Cc2cccc(Cl)c2)CCN1c1ccc2c(c1)COc1cnccc1-2` (stereo not drawn) [Compound 9], the “Degree” value in assay [1] was “A (substantial protection (A) >50%)”. The IC50 at SARM1 lay in the range of 1000 to 10000 nM.
The corresponding values for `O=C(CCc1cc(F)c(F)c(F)c1)Nc1ccc2c(c1)COc1cnccc1-2` [Compound 27] are “B (partial protection (B): 20% to 50%)” and below 100 nM.
The corresponding values for `O=C1C(Cc2ccc(F)cc2)CCN1c1cnc2c(c1)COc1cnccc1-2` (stereo not drawn) [Compound 126] are “A (substantial protection (A) >50%)” and below 100 nM.
On to `O=C(CCc1cccnc1)Nc1ccc2c(c1)COc1cnccc1-2` [Compound 50], for which the “Degree” value in assay [1] was “A (substantial protection (A) >50%)”. For the same compound, at SARM1, the IC50 fell in the range of 100 to 1000 nM.
For `O=C(Nc1ccc2c(c1)COc1cnccc1-2)OCc1ccc(F)cc1` [Compound 135] the same measures were “A (substantial protection (A) >50%)” and 100 to 1000 nM.
The corresponding values for `O=C1C(Cc2cc(F)c(Cl)c(F)c2)CCN1c1ccc2c(c1)COc1cnccc1-2` (stereo not drawn) [Compound 18] are “B (partial protection (B): 20% to 50%)” and 1000 to 10000 nM.
Consider `O=C(CCc1ccc(F)c(F)c1)Nc1ccc2c(c1)COc1cnccc1-2` [Compound 25], for which the “Degree” value in assay [1] is “A (substantial protection (A) >50%)”. Further, on SARM1, the IC50 is below 100 nM.
With `O=C(CCc1ccc(Br)cc1)Nc1ccc2c(c1)COc1cnccc1-2` [Compound 22], the “Degree” value in assay [1] was “A (substantial protection (A) >50%)”. Further, at SARM1, the IC50 is 100 to 1000 nM.
For `[2H]C1Oc2cnccc2-c2ccc(N3CCC(Cc4ccc(F)cc4)C3=O)cc21` (stereo not drawn) [Compound 145, 3-(4-fluorobenzyl)-1-(6H-isochromeno[3,4-c]pyridin-8-yl-6-d)pyrrolidin-2-one] the same measures were “A (substantial protection (A) >50%)” and below 100 nM.
